# “Also recorded” adds a separate entry of the source.
# Experiments:
# Assay type in all cases: in vivo, human
# [1] = test system: eyelashes of subjects with idiopathic hypotrichosis; assay: Digital image analysis of upper eyelash length, thickness, darkness, idiopathic hypotrichosis; settings: for Upper eyelash length, mean % change from baseline / Upper eyelash length, mean value / Upper eyelash thickness, mean % change from baseline / Upper eyelash thickness, mean value / Upper eyelash darkness, mean % change from baseline / Upper eyelash darkness, mean value: Bim/Veh group (n = 60); for Upper eyelash darkness, mean % change from baseline / Upper eyelash darkness, mean percent change from baseline: negative = darker; for Upper eyelash darkness, mean value: scale 0 black to 255 white
# Experimental: Secondary efficacy measures were based on digital image analysis (DIA) of eyelash characteristics: upper eyelash length (millimeters [mm]), thickness (mm^2), and darkness (intensity units). For darkness, a negative value in terms of change from baseline indicated darker eyelashes. Upper eyelash characteristics of length, thickness, and darkness were determined by a validated DIA method. The reliability and reproducibility of DIA have been verified within the acceptance criteria of 0.05% or less of mean coefficient of variance. The principal variables for the secondary efficacy assessments are: change from baseline in upper eyelash length (mm), average progressive eyelash thickness (mm^2), and eyelash darkness (intensity units) at months 4, 6, 10, and 12 or early termination. Descriptive statistics of the raw value at baseline and percent change from baseline at follow-up visits were summarized by treatment group for each principal measure of the 3 secondary variables of eyelash characteristics. Between-group comparisons were performed using a van Elteren test stratified by hypotrichosis etiology.
# [2] = Safety (adverse events, IOP), chemotherapy-induced hypotrichosis subpopulation
# Experimental: (§1) Safety measures included adverse events (AEs), ophthalmic examination (ophthalmoscopy [dilated], biomicroscopy, IOP, iris color assessment, and BCVA). AEs were monitored throughout the study by the investigator.
# (§2) The 12-month data were the primary focus of the safety evaluation. Safety data were summarized with descriptive statistics (n, or frequency distributions [counts or percentages]). Biomicroscopic examinations and assessments of iris color, IOP, and BCVA were performed for each subject at screening/baseline and months 1, 2, 4, 6, 8, and 12 (or early termination prior to month 12); ophthalmoscopic examinations (dilated) were performed at screening/baseline and months 6 and 12 (or early termination prior to month 12). Two IOP measurements were taken for each eye at each visit; a third measurement was taken if the difference between the first 2 measurements was more than 2 mm Hg. The average or median IOP was determined in the event that 2 or 3 measurements were made, respectively. The IOP value analyzed at each visit was the average IOP of the subject's 2 eyes. Change and percent change from baseline in IOP were summarized by descriptive statistics. Between-group comparison will be performed using the 1-way analysis of variance.
# [3] = Safety, overall study population (adverse events, ophthalmic examination, IOP, iris color)
# Experimental: as §1, §2
# Iris color assessments were performed using a 10-category subjective classification: blue, blue-gray, blue/gray-brown, gray, green, green-brown, hazel, brown, dark brown, and other.
# [4] = Month 10 (vehicle since month 6)
# [5] = Month 12 (vehicle since month 6)
# [6] = Month 4, all bimatoprost TP1 (n = 179)
# [7] = Month 4, all bimatoprost TP1 (n = 179), listed as Bimatoprost
# [8] = Month 6, all bimatoprost TP1 (n = 179)
# [9] = Month 6, group treated up to 12 months with bimatoprost
# [10] = Month 12, group treated up to 12 months with bimatoprost
# [11] = chemotherapy-induced, 0 to 6 Months (N = 96)
# [12] = chemotherapy-induced, 0 to 12 Months (N = 96)
# [13] = chemotherapy-induced, 6 to 12 Months (N = 89)
# [14] = postchemotherapy, first 6-month study period
# [15] = postchemotherapy, first 6 months, N = 96
# [16] = overall population during bimatoprost treatment periods
# [17] = subjects treated with bimatoprost, 10-category scale
compound,measurement,setting,value
"CCNC(=O)CCC/C=C\C[C@@H]1[C@@H](/C=C/[C@@H](O)CCc2ccccc2)[C@H](O)C[C@@H]1O [Bim 0.03%, bimatoprost]","Upper eyelash length, mean % change from baseline",[1]; Month 4 (on bimatoprost),21.01%
same,"Upper eyelash length, mean value",[1]; Month 4 (on bimatoprost),6.8 mm
same,"Upper eyelash thickness, mean % change from baseline",[1]; Month 4 (on bimatoprost),73.7%
same,"Upper eyelash thickness, mean value",[1]; Month 4 (on bimatoprost),1.2 mm^2
same,"Upper eyelash darkness, mean % change from baseline",[1]; Month 4 (on bimatoprost),−16.01%
same,"Upper eyelash darkness, mean value",[1]; Month 4 (on bimatoprost),126.3 intensity units
same,"Upper eyelash length, mean % change from baseline",[1]; Month 6 (on bimatoprost),25.70%
same,"Upper eyelash length, mean value",[1]; Month 6 (on bimatoprost),7.1 mm
same,"Upper eyelash thickness, mean % change from baseline",[1]; Month 6 (on bimatoprost),79.9%
same,"Upper eyelash thickness, mean value",[1]; Month 6 (on bimatoprost),1.2 mm^2
same,"Upper eyelash darkness, mean % change from baseline",[1]; Month 6 (on bimatoprost),−14.89%
same,"Upper eyelash darkness, mean value",[1]; Month 6 (on bimatoprost),128.0 intensity units
same,"Upper eyelash length, mean % change from baseline",[1]; [4],6.46%
same,"Upper eyelash length, mean value",[1]; [4],6.0 mm
same,"Upper eyelash thickness, mean % change from baseline",[1]; [4],13.0%
same,"Upper eyelash thickness, mean value",[1]; [4],0.8 mm^2
same,"Upper eyelash darkness, mean % change from baseline",[1]; [4],−3.97%
same,"Upper eyelash darkness, mean value",[1]; [4],143.7 intensity units
same,"Upper eyelash length, mean % change from baseline",[1]; [5],4.62%
same,"Upper eyelash length, mean value",[1]; [5],5.9 mm
same,"Upper eyelash thickness, mean % change from baseline",[1]; [5],15.9%
same,"Upper eyelash thickness, mean value",[1]; [5],0.9 mm^2
same,"Upper eyelash darkness, mean % change from baseline",[1]; [5],−4.29%
same,"Upper eyelash darkness, mean value",[1]; [5],143.6 intensity units
same,"Upper eyelash length, mean percent change from baseline",[1]; [6],22.90%
same,"Upper eyelash thickness, mean percent change from baseline",[1]; [6],95.90%
same,"Upper eyelash length, mean percent change from baseline",[1]; [7],22.9 (177) %
same,"Upper eyelash thickness, mean percent change from baseline",[1]; [7],95.9 (150) %
same,"Upper eyelash darkness, mean percent change from baseline",[1]; [6],−15.70%
same,"Upper eyelash darkness, mean percent change from baseline",[1]; [7],−15.7 (150) %
same,"Upper eyelash length, mean percent change from baseline",[1]; [8],26.0 (177) %
same,"Upper eyelash thickness, mean percent change from baseline",[1]; [8],91.4 (150) %
same,"Upper eyelash darkness, mean percent change from baseline",[1]; [8],−14.1 (150) %
same,"Eyelash length, mean percent increase from baseline",[1]; [9],26.17%
same,"Eyelash length, median percent increase from baseline",[1]; [9],22.4%
same,Increase in mean eyelash length from baseline,[1]; [9],1.44 mm
same,"Eyelash length, mean percent increase from baseline",[1]; [10],25.86%
same,"Eyelash length, median percent increase from baseline",[1]; [10],22.63%
same,Conjunctival hyperaemia,[2]; [11],15.6%
same,Erythema of eyelid,[2]; [11],1.0%
same,Eye pruritus,[2]; [11],5.2%
same,Eyelids pruritus,[2]; [11],3.1%
same,Punctate keratitis,[2]; [11],8.3%
same,Skin hyperpigmentation,[2]; [11],3.1%
same,Conjunctival hyperaemia,[2]; [12],16.7%
same,Erythema of eyelid,[2]; [12],3.1%
same,Eye pruritus,[2]; [12],6.3%
same,Eyelids pruritus,[2]; [12],3.1%
same,Punctate keratitis,[2]; [12],9.4%
same,Skin hyperpigmentation,[2]; [12],5.2%
same,Mean change from baseline in IOP,"[2]; chemotherapy-induced, 2-month visit, IOP measured in mm Hg",−1.22
same,Conjunctival hyperaemia,[2]; [13],1.1%
same,Erythema of eyelid,[2]; [13],2.2%
same,Eye pruritus,[2]; [13],1.1%
same,Eyelids pruritus,[2]; [13],1.1%
same,Punctate keratitis,[2]; [13],1.1%
same,Skin hyperpigmentation,[2]; [13],2.2%
same,Subjects reporting at least 1 adverse event,[2]; [14],57.3%
same,Subjects reporting treatment-related adverse events,[2]; [14],27.1%
same,Treatment-related adverse events reported as severe,"[2]; postchemotherapy, first 6 months",None
same,Treatment-related conjunctival hyperaemia,[2]; [15],12 subjects
same,Treatment-related eye pruritus,[2]; [15],3 subjects
same,Treatment-related eyelid irritation,[2]; [15],2 subjects
same,Treatment-related eyelids pruritus,[2]; [15],3 subjects
same,Treatment-related punctate keratitis,[2]; [15],7 subjects
same,Treatment-related skin hyperpigmentation,[2]; [15],3 subjects
same,1-category change in iris hyperpigmentation reported as an AE,"[3]; about 2 months after discontinuation of bimatoprost and initiation of vehicle, mild",1 subject
same,Greatest magnitude of mean change from baseline IOP,"[3]; any time point, any group",less than 2 mm Hg
same,Subjects with biomicroscopy and ophthalmoscopy findings of at least a 2-severity grade increase from baseline,[3]; bimatoprost 0.03% followed by vehicle (6-month treatment period),5.0%
same,Subjects with biomicroscopy and ophthalmoscopy findings of at least a 2-severity grade increase from baseline,[3]; bimatoprost during both treatment periods (12-month treatment period),4.2%
same,Drug-related serious adverse events,"[3]; both subpopulations, 12-month study",No drug-related serious adverse events were reported; also recorded: no serious AEs attributed to study treatment
same,Conjunctival hyperaemia,[3]; [16],12.1%
same,Erythema,[3]; [16],4.2%
same,Eyelid pruritus,[3]; [16],4.7%
same,Punctuate keratitis,[3]; [16],5.6%
same,1- to 2-category iris color change from dark to light,[3]; [17],6 subjects
same,1-category iris color change from light to dark,[3]; [17],5 subjects
same,Subjects with biomicroscopy and ophthalmoscopy findings of at least a 2-severity grade increase from baseline,[3]; vehicle followed by bimatoprost (6-month treatment period),2.4%
same,Subjects discontinued due to a treatment-related AE,"[3]; whole study (study treatment), all in idiopathic subpopulation",2.8%
same,Enophthalmos leading to treatment discontinuation,"[3]; whole study, mild/moderate",1 subject
